Measurements: patent US8642585B2, “Indanyloxydihydrobenzofuranylacetic acids” (Boehringer Ingelheim International GmbH, priority 2012, dated 2014)

The compounds below were run against human GPR40 receptor (Homo sapiens, UniProt O14842) (assay: Assay II: IP1 accumulation (IPOne HTRF) in 1321N1 cells stably expressing human GPR40). Details: 1321N1 cells expressing human GPR40, stimulation 1 h at 37° C., 5% CO2, LiCl 50 mM.
human GPR40 receptor, sequence (O14842 whole entry): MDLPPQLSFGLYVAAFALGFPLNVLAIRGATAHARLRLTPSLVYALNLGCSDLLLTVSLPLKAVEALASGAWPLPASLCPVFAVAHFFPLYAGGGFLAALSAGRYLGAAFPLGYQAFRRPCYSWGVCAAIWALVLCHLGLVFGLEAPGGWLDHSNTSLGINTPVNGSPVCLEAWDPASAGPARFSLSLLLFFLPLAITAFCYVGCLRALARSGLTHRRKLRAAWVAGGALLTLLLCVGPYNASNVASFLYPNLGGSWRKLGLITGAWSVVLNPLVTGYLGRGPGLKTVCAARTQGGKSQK
Type: cell-based
Experimental: IP1 accumulation measurements using the IPOne assay system—1321N1 cells stably expressing human GPR40 receptor (Euroscreen, Belgium) are seeded 24 h before the assay in white 384-well plates in culture medium containing 10% FCS, 1% Na-Pyruvate and 400 μg/mL G418. IP1 is assayed according to the manufacturers description (Cisbio Bioassays, France). In brief, the assay is started by substitution of the culture medium by stimulation buffer (Hepes 10 mM, CaCl2 1 mM, MgCl2 0.5 mM, KCl 4.2 mM, NaCl 146 mM, glucose 5.5 mM and LiCl 50 mM, pH 7.4). Cells are stimulated for 1 h at 37° C., 5% CO2 by addition of the compounds that are diluted in stimulation buffer containing LiCl. Assays are stopped by adding HTRF-conjugates (IP1-d2 and Anti-IP1 cryptate Tb) and lysis buffer, provided by the manufacturer. After an incubation time of 1 h at room temperature plates are measured using an EnVision™, Perkin Elmer. The obtained fluorescence ratios at 665/615 nM are then used to calculate the pEC50 values using Assay Explorer 3.3 Software (Accelrys, Inc.) by interpolation using an IP1 reference curve and subsequent sigmoidal curve fitting allowing for a variable hill slope.
In the case of `Cc1cc(-c2nnn(C(C)(C)CO)n2)cc(C)c1-c1ccc(F)c2c1CC[C@H]2Oc1ccc2c(c1)OC[C@H]2CC(=O)O` [Example 99, 2-((S)-6-((R)-7-Fluoro-4-(4-(2-(1-hydroxy-2-methylpropan-2-yl)-2H-tetrazol-5-yl)-2,6-dimethylphenyl)-2,3-dihydro-1H-inden-1-yloxy)-2,3-dihydrobenzofuran-3-yl)acetic acid], the EC50 is reported as 4 nM.
`CC(C)(C)COc1ncccc1-c1ccc(F)c2c1CC[C@H]2Oc1ccc2c(c1)OC[C@H]2CC(=O)O` [Example 100] showed an EC50 of 58 nM.
`Cc1cc(-c2ccc(=O)n(C)n2)cc(C)c1-c1ccc(F)c2c1CC[C@H]2Oc1ccc2c(c1)OC[C@H]2CC(=O)O` [Example 101, 2-((S)-6-((R)-4-(2,6-Dimethyl-4-(1-methyl-6-oxo-1,6-dihydropyridazin-3-yl)phenyl)-7-fluoro-2,3-dihydro-1H-inden-1-yloxy)-2,3-dihydrobenzofuran-3-yl)acetic acid] was tested, and the EC50 was 3 nM.
Compound `CN(C)C(=O)c1ccccc1-c1ccc(F)c2c1CC[C@H]2Oc1ccc2c(c1)OC[C@H]2CC(=O)O` [Example 102, 2-((3S)-6-((1R)-4-(2-(Dimethylcarbamoyl)phenyl)-7-fluoro-2,3-dihydro-1H-inden-1-yloxy)-2,3-dihydrobenzofuran-3-yl)acetic acid] has an EC50 of 2240 nM.
`Cn1nnnc1-c1c(F)cccc1-c1ccc(F)c2c1CC[C@H]2Oc1ccc2c(c1)OC[C@H]2CC(=O)O` [Example 103, 2-((3S)-6-((1R)-7-Fluoro-4-(3-fluoro-2-(1-methyl-1H-tetrazol-5-yl)phenyl)-2,3-dihydro-1H-inden-1-yloxy)-2,3-dihydrobenzofuran-3-yl)acetic acid] showed an EC50 of 1430 nM.
`Cc1cc(-c2ccncc2)cc(C)c1-c1ccc(F)c2c1CC[C@H]2Oc1ccc2c(c1)OC[C@H]2CC(=O)O` [Example 104, {(S)-6-[(R)-4-(2,6-Dimethyl-4-pyridin-4-yl-phenyl)-7-fluoro-indan-1-yloxy]-2,3-dihydro-benzofuran-3-yl}-acetic acid] was tested, and the EC50 was 7 nM.
`O=C(O)C[C@@H]1COc2cc(O[C@@H]3CCc4c(-c5cccnc5-c5ccoc5)ccc(F)c43)ccc21` [Example 105, {(S)-6-[(R)-7-Fluoro-4-(2-furan-3-yl-pyridin-3-yl)-indan-1-yloxy]-2,3-dihydro-benzofuran-3-yl}-acetic acid] gave an EC50 of 582 nM.
For `O=C(O)C[C@@H]1COc2cc(O[C@@H]3CCc4c(-c5cccnc5-c5ccccc5)ccc(F)c43)ccc21` [Example 106, {(S)-6-[(R)-7-Fluoro-4-(2-phenyl-pyridin-3-yl)-indan-1-yloxy]-2,3-dihydro-benzofuran-3-yl}-acetic acid], the EC50 was 59 nM.
Compound `Cc1cc(-c2cc(C)c(-c3ccc(F)c4c3CC[C@H]4Oc3ccc4c(c3)OC[C@H]4CC(=O)O)c(C)c2)ccn1` [Example 107, {(S)-6-[(R)-4-(2,6-Dimethyl-4-(2-methyl-pyridin-4-yl)-phenyl)-7-fluoro-indan-1-yloxy]-2,3-dihydro-benzofuran-3-yl}-acetic acid] has an EC50 of 4 nM.
`Cc1nn(C)c(C)c1-c1ncccc1-c1ccc(F)c2c1CC[C@H]2Oc1ccc2c(c1)OC[C@H]2CC(=O)O` [Example 108, {(S)-6-[(R)-7-Fluoro-4-[2-(1,3,5-trimethyl-pyrazol-4-yl)-pyridin-3-yl]-indan-1-yloxy]-2,3-dihydro-benzofuran-3-yl}-acetic acid] showed an EC50 greater than 10000 nM.
With `Cc1cc(-c2c(C)nn(C)c2C)cc(C)c1-c1ccc(F)c2c1CC[C@H]2Oc1ccc2c(c1)OC[C@H]2CC(=O)O` [Example 109, {(S)-6-[(R)-4-(2,6-Dimethyl-4-(1,3,5-trimethyl-pyrazol-4-yl)-phenyl)-7-fluoro-indan-1-yloxy]-2,3-dihydro-benzofuran-3-yl}-acetic acid] the EC50 was 8 nM.
For `O=C(O)C[C@@H]1COc2cc(O[C@@H]3CCc4c(-c5cccnc5C5CCOCC5)ccc(F)c43)ccc21` [Example 110, {(S)-6-[(R)-7-Fluoro-4-(2-tetrahydropyran-4-yl-pyridin-3-yl)-indan-1-yloxy]-2,3-dihydro-benzofuran-3-yl}-acetic acid], the EC50 was 351 nM.
Compound `Cc1cncc(-c2cc(C)c(-c3ccc(F)c4c3CC[C@H]4Oc3ccc4c(c3)OC[C@H]4CC(=O)O)c(C)c2)c1` [Example 111, {(S)-6-[(R)-4-(2,6-Dimethyl-4-(5-methyl-pyridin-3-yl)-phenyl)-7-fluoro-indan-1-yloxy]-2,3-dihydro-benzofuran-3-yl}-acetic acid] has an EC50 of 4 nM.
In the case of `Cc1cc(-c2cccnc2)cc(C)c1-c1ccc(F)c2c1CC[C@H]2Oc1ccc2c(c1)OC[C@H]2CC(=O)O` [Example 112, {(S)-6-[(R)-4-(2,6-Dimethyl-4-pyridin-3-yl-phenyl)-7-fluoro-indan-1-yloxy]-2,3-dihydro-benzofuran-3-yl}-acetic acid], the EC50 is reported as 5 nM.
For `Cc1cnc(-c2cc(C)c(-c3ccc(F)c4c3CC[C@H]4Oc3ccc4c(c3)OC[C@H]4CC(=O)O)c(C)c2)nc1` [Example 113, {(S)-6-[(R)-4-(2,6-Dimethyl-4-(5-methyl-pyrimidin-2-yl)-phenyl)-7-fluoro-indan-1-yloxy]-2,3-dihydro-benzofuran-3-yl}-acetic acid], the EC50 was 1 nM.
Compound `Cc1cnc(-c2cc(C)c(-c3ccc(F)c4c3CC[C@H]4Oc3ccc4c(c3)OC[C@H]4CC(=O)O)c(C)c2)cn1` [Example 114, {(S)-6-[(R)-4-(2,6-Dimethyl-4-(5-methyl-pyrazin-2-yl)-phenyl)-7-fluoro-indan-1-yloxy]-2,3-dihydro-benzofuran-3-yl}-acetic acid] has an EC50 of 2 nM.
`Cc1cc(-c2cc(C)c(-c3ccc(F)c4c3CC[C@H]4Oc3ccc4c(c3)OC[C@H]4CC(=O)O)c(C)c2)nc(C)n1` [Example 115, {(S)-6-[(R)-4-(2,6-Dimethyl-4-(2,6-dimethyl-pyrimidin-4-yl)-phenyl)-7-fluoro-indan-1-yloxy]-2,3-dihydro-benzofuran-3-yl}-acetic acid] showed an EC50 of 2 nM.
In the case of `COc1cc(-c2cc(C)c(-c3ccc(F)c4c3CC[C@H]4Oc3ccc4c(c3)OC[C@H]4CC(=O)O)c(C)c2)ccn1` [Example 116, {(S)-6-[(R)-4-(2,6-Dimethyl-4-(2-methoxy-pyridin-4-yl)-phenyl)-7-fluoro-indan-1-yloxy]-2,3-dihydro-benzofuran-3-yl}-acetic acid], the EC50 is reported as 3 nM.
For `Cc1ccc(-c2cc(C)c(-c3ccc(F)c4c3CC[C@H]4Oc3ccc4c(c3)OC[C@H]4CC(=O)O)c(C)c2)cn1` [Example 117, {(S)-6-[(R)-4-(2,6-Dimethyl-4-(6-methyl-pyridin-3-yl)-phenyl)-7-fluoro-indan-1-yloxy]-2,3-dihydro-benzofuran-3-yl}-acetic acid], the EC50 was 2 nM.
`Cc1cncc(-c2cc(C)c(-c3ccc(F)c4c3CC[C@H]4Oc3ccc4c(c3)OC[C@H]4CC(=O)O)c(C)c2)n1` [Example 118, {(S)-6-[(R)-4-(2,6-Dimethyl-4-(6-methyl-pyrazin-2-yl)-phenyl)-7-fluoro-indan-1-yloxy]-2,3-dihydro-benzofuran-3-yl}-acetic acid] was tested, and the EC50 was 2 nM.
With `Cc1ccnc(-c2cc(C)c(-c3ccc(F)c4c3CC[C@H]4Oc3ccc4c(c3)OC[C@H]4CC(=O)O)c(C)c2)n1` [Example 119, {(S)-6-[(R)-4-(2,6-Dimethyl-4-(4-methyl-pyrimidin-2-yl)-phenyl)-7-fluoro-indan-1-yloxy]-2,3-dihydro-benzofuran-3-yl}-acetic acid] the EC50 was 1 nM.
